Patent US11325892B2, “Compounds and methods for treating cancer” (Mayo Foundation for Medical Education and Research, priority 2014, dated 2022)

Legend:
SCD1 = target: T1, SCD1 (Homo sapiens, UniProt O00767); details: known inhibitors; cited from earlier work
T1 sequence (O00767 1-359): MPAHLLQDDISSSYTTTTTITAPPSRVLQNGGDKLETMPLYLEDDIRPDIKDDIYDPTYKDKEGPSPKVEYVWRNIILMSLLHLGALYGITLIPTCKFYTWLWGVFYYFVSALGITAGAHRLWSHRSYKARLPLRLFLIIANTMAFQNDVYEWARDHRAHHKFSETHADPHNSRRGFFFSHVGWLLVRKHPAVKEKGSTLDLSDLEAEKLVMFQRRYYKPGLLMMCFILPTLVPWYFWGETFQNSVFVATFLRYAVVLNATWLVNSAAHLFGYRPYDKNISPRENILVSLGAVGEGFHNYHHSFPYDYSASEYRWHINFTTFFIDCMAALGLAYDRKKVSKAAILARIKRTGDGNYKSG

[1] = tested on: PARP cleavage and CHOP expression in THJ29T and THJ16T; test: Western blot for PARP cleavage and CHOP expression, combinatorial therapy; format: cell-based; details: EC50 doses, 48H
Method: Protein extraction and western blot analysis was performed as previously described (Copland J A, Marlow L A, Kurakata S, et al. Novel high-affinity PPARgamma agonist alone and in combination with paclitaxel inhibits human anaplastic thyroid carcinoma tumor growth via p21WAF1/CIP1. Oncogene. Apr 13 2006; 25(16):2304-2317). Primary antibodies included SCD1 (Sigma-Aldrich, #HPA012107), BiP (Cell Signaling, #3183), CHOP (Cell Signaling, #2895), sXBP1(Santa Cruz Biotechnology, #sc-7160), PARP(Cell Signaling, #9542), and β-actin (Sigma-Aldrich, #A5441).
THJ29T and THJ16T treated for 48H with EC50 doses of either A939572 or MF-438 in combination with either carfilzomib or bortezomib were probed for PARP cleavage and CHOP expression, both markers indicative of apoptosis (FIGS. 14A-B, 15A-B). […] Cell death was additionally examined via flow cytometry using propidium iodide staining. THJ29T and THJ16T were treated for 48H with EC50 doses of either A939572 or MF-438 in combination with either carfilzomib or bortezomib prior to staining and analysis.

[2] = tested on: THJ29T, THJ16T and KTC2 cells; test: Oleic acid rescue of proliferation in ATC cells; format: cell-based; details: EC50 dose for 72H with 5 μM oleic acid
Method: Cells were seeded at 5,000 cells/well in clear-bottom 96-well plates in triplicate in Maintenance Media. Drug treatment was applied at a concentration of 1:1000 in reduced serum (3%) Maintenance Media. After 72 hours, cells were washed with PBS, and stored at −80° C. prior to analysis using CyQuant® Proliferation Analysis Kit (Invitrogen) as per manufacturers' protocol for relative fluorescence units. Alternatively, cells were plated 2×10^5/well in 12-well plates (Midwest Scientific) in triplicate prior to drug treatment. After 120 hour treatment, cell number was established using a Coulter Particle Counter (Beckman). Or, cells were plated (0.5 or 1×10^5/well) in 24-well plates (Midwest Scientific), 3×. After 72 hour treatment, cell number established using Coulter Particle Counter (Beckman). Oleic acid-albumin (Sigma Aldrich) was added to media at 5 μM, and was applied adjuvant to drug treatment. Drug stocks were prepared in DMSO (Sigma) at 1000×. EC50 dosing per cell line was calculated using CalcuSyn® analytical software. […]

ATC cells = test: Proliferative dose response of thyroid cells; format: cell-based; details: ATC cells; for proliferation: 72H treatment; for 50% effective concentrations (EC50): proliferation
Method: (§1) Cells were seeded at 5,000 cells/well in clear-bottom 96-well plates in triplicate in Maintenance Media. Drug treatment was applied at a concentration of 1:1000 in reduced serum (3%) Maintenance Media. After 72 hours, cells were washed with PBS, and stored at −80° C. prior to analysis using CyQuant® Proliferation Analysis Kit (Invitrogen) as per manufacturers' protocol for relative fluorescence units. Alternatively, cells were plated 2×10^5/well in 12-well plates (Midwest Scientific) in triplicate prior to drug treatment. After 120 hour treatment, cell number was established using a Coulter Particle Counter (Beckman). Or, cells were plated (0.5 or 1×10^5/well) in 24-well plates (Midwest Scientific), 3×. After 72 hour treatment, cell number established using Coulter Particle Counter (Beckman). Oleic acid-albumin (Sigma Aldrich) was added to media at 5 μM, and was applied adjuvant to drug treatment. Drug stocks were prepared in DMSO (Sigma) at 1000×. EC50 dosing per cell line was calculated using CalcuSyn® analytical software.
The efficacy of pharmacologic inhibition of this enzyme on tumor cell proliferation after a 72H treatment was determined, using A939572-a commercially available small molecule SCD1 inhibitor (Xin Z, Zhao H, Serby M D, Liu B, Liu M, Szczepankiewicz B G, Nelson L T, Smith H T, Suhar T S, Janis R S, Cao N, Camp H S, Collins C A, Sham H L, Surowy T K, Liu G. Discovery of piperidine-aryl urea-based stearoyl-CoA desaturase 1 inhibitors. Bioorg Med Chem Lett. 2008; 18(15):4298-302). […] Despite conspicuous SCD1 expression in 4 of the 5 FTC cells tested, no response to A939572 was observed (FIG. 10D).
THJ29T, THJ16T, and KTC2 were treated with carfilzomib (FIG. 12A) or bortezomib for 72H in order to establish EC50 values. […] Anti-proliferative drug synergy was evaluated in THJ29T and THJ16T treated with either A939572 or MF-438 in combination with either bortezomib or carfilzomib for 48H. Synergy was assessed using CalcuSyn analytical software, which determines the combination index (CI) based on the Chou-Talalay method where CI values >1 represent an antagonistic effect and values <1 represent synergy, and lower values signify enhanced synergy (Chou T C, Talalay P. Analysis of Combined Drug Effects—a New Look at a Very Old Problem. Trends in Pharmacological Sciences. 1983; 4(11):450-4).

[3] = tested on: A498, ACHN, and Caki1 cell lines; test: Oleic acid (OA) rescue assay of cell proliferation in ccRCC cells; format: cell-based; details: EC50 dose of compound with OA (5 μg/μL); all three cell lines
Method: as §1
A498, ACHN, and Caki1 cell lines were treated with the EC50 dose of each MF-438, ChemBL375265, SSI-1, SSI-4, SSI-3, and SSI-2 with or without concomitant application of OA (5 μg/μL). […] Representative images of A498 cell morphology and density treated with each compound +/−OA are shown in (FIG. 2B).

Row | SMILES | IC50 (SCD1) [nM] | PARP cleavage as compared to DMSO control [1] | rescue of proliferation with OA [2] | proliferation (ATC cells) | 50% effective concentrations (EC50) (ATC cells) | rescue of cell proliferation with OA [3]
1 | CNC(=O)c1cccc(NC(=O)N2CCC(Oc3ccccc3Cl)CC2)c1 [A939572] | 37 | significant PARP cleavage | complete rescue of proliferation | dose-dependent decrease in proliferation | low nanomolar dose range | –
2 | Cc1nnc(-c2ccc(N3CCC(Oc4ccccc4C(F)(F)F)CC3)nn2)s1 [MF-438, 2-methyl-5-(6-(4-(2-(trifluoromethyl)phenoxy)piperidin-1-yl)pyridazin-3-yl)-1,3,4-thiadiazole] | – | significant PARP cleavage | complete rescue of proliferation | dose-dependent decrease in ATC proliferation | low nanomolar dose range | Near total rescue of cell proliferation
